Reference: PubChem BioAssay (NCI)
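Protocol summary: plate cells (96-well), add compound at 5 concentrations, incubate 48 h, interpolate endpoints linearly. The concentration for 50% growth inhibition is given as GI50. The concentration for full growth arrest is given as TGI.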

Experiments:
Assay in all cases: NCI-60 cell line screen, 48 h
786-0 renal = tested on: 786-0 renal
A498 renal = tested on: A498 renal
A549 NSCLC = tested on: A549 NSCLC
ACHN renal = tested on: ACHN renal
BT-549 breast = tested on: BT-549 breast
CCRF-CEM leukemia = tested on: CCRF-CEM leukemia
COLO 205 colon = tested on: COLO 205 colon
DU-145 prostate = tested on: DU-145 prostate
EKVX NSCLC = tested on: EKVX NSCLC
HCC-2998 colon = tested on: HCC-2998 colon
HCT-116 colon = tested on: HCT-116 colon
HCT-15 colon = tested on: HCT-15 colon
HL-60(TB) leukemia = tested on: HL-60(TB) leukemia
HOP-62 NSCLC = tested on: HOP-62 NSCLC
HOP-92 NSCLC = tested on: HOP-92 NSCLC
HS 578T breast = tested on: HS 578T breast
HT29 colon = tested on: HT29 colon
IGROV1 ovarian = tested on: IGROV1 ovarian
K-562 leukemia = tested on: K-562 leukemia
KM12 colon = tested on: KM12 colon
LOX IMVI melanoma = tested on: LOX IMVI melanoma
M14 melanoma = tested on: M14 melanoma
MALME-3M melanoma = tested on: MALME-3M melanoma
MCF7 breast = tested on: MCF7 breast
MDA-MB-231 breast = tested on: MDA-MB-231 breast
MDA-MB-435 = tested on: MDA-MB-435
MOLT-4 leukemia = tested on: MOLT-4 leukemia
NCI-H226 lung = tested on: NCI-H226 lung
NCI-H23 lung = tested on: NCI-H23 lung
NCI-H460 lung = tested on: NCI-H460 lung
NCI-H522 lung = tested on: NCI-H522 lung
NCI/ADR-RES ovarian = tested on: NCI/ADR-RES ovarian
OVCAR-3 ovarian = tested on: OVCAR-3 ovarian
OVCAR-4 ovarian = tested on: OVCAR-4 ovarian
OVCAR-5 ovarian = tested on: OVCAR-5 ovarian
OVCAR-8 ovarian = tested on: OVCAR-8 ovarian
PC-3 prostate = tested on: PC-3 prostate
RPMI-8226 leukemia = tested on: RPMI-8226 leukemia
RXF 393 renal = tested on: RXF 393 renal
SF-268 CNS = tested on: SF-268 CNS
SF-295 CNS = tested on: SF-295 CNS
SF-539 CNS = tested on: SF-539 CNS
SK-MEL-2 melanoma = tested on: SK-MEL-2 melanoma
SK-MEL-28 melanoma = tested on: SK-MEL-28 melanoma
SK-MEL-5 melanoma = tested on: SK-MEL-5 melanoma
SK-OV-3 ovarian = tested on: SK-OV-3 ovarian
SN12C renal = tested on: SN12C renal
SNB-19 CNS = tested on: SNB-19 CNS
SNB-75 CNS = tested on: SNB-75 CNS
SR leukemia = tested on: SR leukemia
SW-620 colon = tested on: SW-620 colon
T-47D breast = tested on: T-47D breast
TK-10 renal = tested on: TK-10 renal
U251 CNS = tested on: U251 CNS
UACC-257 melanoma = tested on: UACC-257 melanoma
UACC-62 melanoma = tested on: UACC-62 melanoma
UO-31 renal = tested on: UO-31 renal

## Clc1ccc2c(NCCCCNc3nc(N4CCOCC4)nc4ccccc34)ccnc2c1
786-0 renal
  GI50: 2280 nM
  TGI: 5.94 µM
A498 renal
  GI50: 1830 nM
  TGI: 4.28 µM
A549 NSCLC
  GI50: 3.16 µM
  TGI: 11.3 µM
ACHN renal
  GI50: 1900 nM
  TGI: 3.6 µM
BT-549 breast
  GI50: 2960 nM
  TGI: 9.42 µM
CCRF-CEM leukemia
  GI50: 3.42 µM
  TGI: 9.38 µM
COLO 205 colon
  GI50: 1870 nM
  TGI: 4.49 µM
DU-145 prostate
  GI50: 4.62 µM
  TGI: 16.5 µM
EKVX NSCLC
  GI50: 3.7 µM
  TGI: 15.3 µM
HCC-2998 colon
  GI50: 3.81 µM
  TGI: 14 µM
HCT-116 colon
  GI50: 2130 nM
  TGI: 4.63 µM
HCT-15 colon
  GI50: 2750 nM
  TGI: 11.4 µM
HL-60(TB) leukemia
  GI50: 2270 nM
  TGI: 4.3 µM
HOP-62 NSCLC
  GI50: 2170 nM
  TGI: 5.67 µM
HOP-92 NSCLC
  GI50: 1880 nM
  TGI: 4.29 µM
HS 578T breast
  GI50: 2250 nM
  TGI: 7.66 µM
HT29 colon
  GI50: 2610 nM
  TGI: 7.14 µM
IGROV1 ovarian
  GI50: 2990 nM
  TGI: 11.5 µM
K-562 leukemia
  GI50: 1430 nM
  TGI: 11.2 µM
KM12 colon
  GI50: 3.52 µM
  TGI: 12.4 µM
LOX IMVI melanoma
  GI50: 1730 nM
  TGI: 3.25 µM
M14 melanoma
  GI50: 2000 nM
  TGI: 3.91 µM
MALME-3M melanoma
  GI50: 2050 nM
  TGI: 3.89 µM
MCF7 breast
  GI50: 3.81 µM
  TGI: 17.7 µM
MDA-MB-231 breast
  GI50: 2100 nM
  TGI: 4.5 µM
MDA-MB-435
  GI50: 2400 nM
  TGI: 6.18 µM
MOLT-4 leukemia
  GI50: 3.59 µM
  TGI: 14 µM
NCI-H226 lung
  GI50: 1720 nM
  TGI: 3.68 µM
NCI-H23 lung
  GI50: 5.68 µM
  TGI: 23.2 µM
NCI-H460 lung
  GI50: 2220 nM
  TGI: 5.22 µM
NCI-H522 lung
  GI50: 2340 nM
  TGI: 5.6 µM
NCI/ADR-RES ovarian
  GI50: 4.88 µM
  TGI: 20.6 µM
OVCAR-3 ovarian
  GI50: 1930 nM
  TGI: 3.7 µM
OVCAR-4 ovarian
  GI50: 2200 nM
  TGI: 5.52 µM
OVCAR-5 ovarian
  GI50: 3.36 µM
  TGI: 12 µM
OVCAR-8 ovarian
  GI50: 3.53 µM
  TGI: 10.6 µM
PC-3 prostate
  GI50: 6.37 µM
  TGI: 19.5 µM
RPMI-8226 leukemia
  GI50: 2800 nM
  TGI: 7.21 µM
RXF 393 renal
  GI50: 1650 nM
  TGI: 3.73 µM
SF-268 CNS
  GI50: 3.29 µM
  TGI: 13.7 µM
SF-295 CNS
  GI50: 1790 nM
  TGI: 3.73 µM
SF-539 CNS
  GI50: 1800 nM
  TGI: 3.39 µM
SK-MEL-2 melanoma
  GI50: 2230 nM
  TGI: 5.02 µM
SK-MEL-28 melanoma
  GI50: 2030 nM
  TGI: 4.03 µM
SK-MEL-5 melanoma
  GI50: 1830 nM
  TGI: 3.3 µM
SK-OV-3 ovarian
  GI50: 3.03 µM
  TGI: 9.97 µM
SN12C renal
  GI50: 2030 nM
  TGI: 4.31 µM
SNB-19 CNS
  GI50: 3.37 µM
  TGI: 12.6 µM
SNB-75 CNS
  GI50: 1330 nM
  TGI: 3.03 µM
SR leukemia
  GI50: 295 nM
  TGI: 853 nM
SW-620 colon
  GI50: 2650 nM
  TGI: 12.5 µM
T-47D breast
  GI50: 2230 nM
  TGI: 6.82 µM
TK-10 renal
  GI50: 1920 nM
  TGI: 3.61 µM
U251 CNS
  GI50: 1840 nM
  TGI: 3.66 µM
UACC-257 melanoma
  GI50: 15.2 µM
  TGI: 29.9 µM
UACC-62 melanoma
  GI50: 1920 nM
  TGI: 3.48 µM
UO-31 renal
  GI50: 1660 nM
  TGI: 3.12 µM
